We go through 14 compounds from patent US9504676B2, “Molecules inhibiting a metabolic pathway involving the Syk protein tyrosine kinase and method for identifying said molecules” (CENTRE NATIONAL DE LA RECHERCHE SCIENTIFIQUE, priority 2008, dated 2016).

Structures are written as SMILES. Converted amounts (≈) assume the structure as drawn. Bounds are passed on as bounds.

One assay relates to RBL-2H3 cells. In words: cells. It counts as cell-based, rat. To be noted: RBL-2H3 cells; for IC50: Rattus norvegicus, read-out: Degran. IC50: concentration inhibiting mast cell degranulation by 50%. As for the experimental part:
These 87 molecules were also tested in vitro to assess the ability thereof to inhibit RBL-2H3 cell degranulation (see table 1).
(§1) • 1) Chemical products and antibodies. A chemical bank of 3000 molecules (a varied subset) was acquired from ChemBridge, Inc. (San Diego, Calif.). Stocks of solutions of small molecules were prepared at a rate of 10 mM in DMSO (dimethylsulphoxide), except for C-13 (methyl 2-{5-[(3-benzyl-4-oxo-2-thioxo-1,3-thiazolidin-5-ylidene)methyl]-2-furyl}benzoate, ChemBridge ID No. 6197026) prepared in DMF (dimethylformamide). Unless specified otherwise, all the reagents were supplied by Sigma. Dinitrophenyl (DNP) hapten was acquired from Calbiochem. Sepharose GammaBind G and all the secondary antibodies were supplied by GE Health Amersham Biosciences. The anti-Syk, anti-Lyn, anti-Btk, anti-PLC-γ1, anti-PLC-γ2, anti-LAT, anti-SLP-76, anti-p38, anti-JNK, anti-Vav, anti-Akt1 and 9E10 antibodies conjugated with HRP were acquired from Santa Cruz Biotechnology. The anti-phospho-p44/42 MAP Kinase, anti-p44/42 MAP Kinase, anti-phospho-p38, anti-phospho-JNK, anti-phospho-Akt1 antibodies were acquired from Cell Signaling. The anti-phospho-LAT and anti-phospho-PLC-γ1 antibodies were supplied by Biosource and the anti-phospho-SLP-76 antibodies by BD Pharmingen. The 4G10 anti-phosphotyrosine monoclonal antibody was acquired from Upstate Biotechnology. • 2) ADA method: ELISA type high-speed molecule screening test, based on antibody displacement (WO 2005106481). The recombinant fusion protein GST:Syk 6-242^8 comprising the residues 6 to 242 of murine Syk tyrosine kinase protein illustrated in FIG. 8B (SEQ ID No. 4) was immobilised on an ELISA plate at a final concentration of 10 μg ml^−1. For the screening of the chemical molecule bank, the small molecules, diluted in PBS at a final concentration of 10 μM were added to the wells for one hour at ambient temperature, before adding the fragment scFv G4G11 at a final concentration of 100 nM for an additional hour. The binding of G4G11 with Syk was assessed by adding the 9E10 monoclonal antibody conjugated with HRP detecting the amino acid sequence EQKLISEEDLN of human c-myc protein located at the C-terminal end of the scFv fragment. To generate Syk mutants, targeted mutagenesis was used on GST:Syk 6-242 protein and the binding of G4G11 with the mutants was assessed in the presence of 5 μM of C-13. • 3) Cells, culture conditions and functional tests. Anti-DNP 2682-I mouse monoclonal antibody was used as the culture supernatant of hybridomas containing 1 μg/ml of IgE. Femoral bone marrow cells were sampled and cultured in Opti-MEM medium (Gibco) supplemented with 10% foetal calf serum and 4% X63 transfectant supernatant secreting murine IL-3. RBL-2H3 (ATCC) leukaemic rat basophil cells were maintained in a single-layer culture in RPMI 1640 medium supplemented with 10% foetal calf serum (Gibco). Measurements of β-hexosaminidase released by the RBL-2H3 cells were performed as described previously^7, except that, after 12-16 hours of incubation with anti-DNP IgE (0.5 μg/ml), the cells were incubated for 90 min at 37° C. in RPMI medium supplemented with the specified concentrations of C-13 or DMF (0.25%). The cells were stimulated for 45 min with DNP-BSA (50 ng ml^−1) or ionomycin (1.5 μM). The BMMC cells were incubated for one hour at 37° C. with anti-DNP IgE (100 ng/ml). They were then incubated with C-13 (3 μM) or DMF (0.3%) for 3 hours at 37° C., and stimulated with varied concentrations of DNP-BSA. The level of β-hexosaminidase released was measured 10 min later and the TNF-α titration was performed by means of a cytotoxicity test on L929 cells as described previously^10, 3 hours after stimulation. The results illustrated in FIG. 3 are representative of three independent experiments. • 4) Immunoprecipitations, in vitro kinase assays and immunodetection. […]

In assay [1] the target is T1, murine Syk tyrosine kinase protein (GST:Syk 6-242) (Mus musculus, UniProt P48025).
T1 construct: made in house
In words: ADA method: displacement of the binding of scFv G4G11 with Syk (ELISA). To be noted: small molecules at 10 μM, scFv G4G11 100 nM; for inhibition at 10 µM: read-out: In vit. inhib.: mean inhibition % of the binding of scFv G4G11 with Syk in the ADA method.
Description: The term “percentage of inhibition” of the binding of an antibody or antibody fragment with Syk protein, particularly refers to the ratio […], where A consists of the intensity of a signal proportional to the quantity of an antibody or antibody fragment bound with Syk protein in the absence of a molecule according to the invention and B the intensity of the same signal in the presence of a molecule according to the invention under the same conditions. […] This test may be performed for example according to the protocol described in example 3-2) hereinafter.
The inventors developed the ADA (Antigen Displacement Assay) method to identify small molecules capable of displacing the association with scFv G4G11 with Syk. […] To understand the mode of action of C-13, the inventors firstly identified the binding site of G4G11 using the SPOT method^16. An epitope located on the N-terminal SH2 domain of Syk, comprising amino acids 65-74 and 100% preserved in mouse, rat and human sequences, was identified.
The ADA method was then applied to each of these […] molecules to measure the ability thereof to inhibit the binding of scFv G4G11 with Syk.
as §1, with “(Gibco).” for “(Gibco). Measurements of β-hexosaminidase released by the RBL-2H3 cells were performed as described previously^7, except that, after 12-16 hours of incubation with anti-DNP IgE (0.5 μg/ml), the cells were incubated for 90 min at 37° C. in RPMI medium supplemented with the specified concentrations of C-13 or DMF (0.25%). The cells were stimulated for 45 min with DNP-BSA (50 ng ml^−1) or ionomycin (1.5 μM). The BMMC cells were incubated for one hour at 37° C. with anti-DNP IgE (100 ng/ml). They were then incubated with C-13 (3 μM) or DMF (0.3%) for 3 hours at 37° C., and stimulated with varied concentrations of DNP-BSA. The level of β-hexosaminidase released was measured 10 min later and the TNF-α titration was performed by means of a cytotoxicity test on L929 cells as described previously^10, 3 hours after stimulation. The results illustrated in FIG. 3 are representative of three independent experiments. • 4) Immunoprecipitations, in vitro kinase assays and immunodetection.”
(In general: In an ELISA, binding on a coated surface is turned into a signal by an enzyme label.)

What is called inhibition is the drop in the measured response relative to a control, in per cent. Consider `O=C(C1=C(O)C(=O)N(CCCN2CCOCC2)C1c1ccccc1F)c1ccc2c(c1)OCO2` (stereo not shown) [Molecule 68, 4-(1,3-benzodioxol-5-ylcarbonyl)-5-(2-fluorophenyl)-3-hydroxy-1-[3-(4-morpholinyl)propyl]-1,5-dihydro-2H-pyrrol-2-one], for which, in the assay with RBL-2H3 cells, the IC50 is roughly 10 µg/mL (≈ 21.3 µM). Moreover, the inhibition at 10 µM in assay [1] stood at 30%.
The corresponding values for `CCN1C2=C(C(=O)CCC2)C(c2ccc(OCc3ccc(C)cc3)c(Cl)c2)C2=C1CCCC2=O` [Molecule 79] are greater than 10 µg/mL and 25%.
On to `CSc1nnc2c(n1)OC(c1cccc(OCc3ccccc3)c1)N(C(C)=O)c1ccccc1-2` (stereo not shown) [Molecule 63, 7-acetyl-6-[3-(benzyloxy)phenyl]-3-(methylthio)-6,7-dihydro [1,2,4] triazino[5,6-d][3,1] benzoxazepine], for which, in the assay on RBL-2H3 cells, the IC50 is roughly 5 µg/mL (≈ 10.6 µM). Moreover, in assay [1], the inhibition at 10 µM was determined as 38.5%.
For `COc1ccc(C2C(C(=O)c3ccc(Cl)cc3)=C(O)C(=O)N2CCN2CCOCC2)cc1OC` (stereo not shown) [Molecule 36, 4-(4-chlorobenzoyl)-5-(3,4-dimethoxyphenyl)-3-hydroxy-1-[2-(4-morpholinyl)ethyl]-1,5-dihydro-2H-pyrrol-2-one], the “Degran. IC50: concentration inhibiting mast cell degranulation by 50%” value with RBL-2H3 cells is greater than 10 µg/mL. Also, the “In vit. inhib.: mean inhibition % of the binding of scFv G4G11 with Syk in the ADA method” value in assay [1] stood at 50%.
With `COc1ccc(C2C(C(=O)c3ccc(F)cc3)=C(O)C(=O)N2CCN2CCOCC2)c(OC)c1` (stereo not shown) [Molecule 33], in the assay with RBL-2H3 cells, the IC50 is greater than 10 µg/mL. In addition, the inhibition at 10 µM in assay [1] came to 50%.
For the compound `Cc1ccc(-c2nnc(Nc3cccc(O)c3)c3ccccc23)cc1S(=O)(=O)NC(C)(C)CO` [Molecule 67, N-(2-hydroxy-1,1-dimethylethyl)-5-{4-[(3-hydroxyphenyl)amino]-1-phthalazinyl}-2-methylbenzenesulphonamide], the IC50 with RBL-2H3 cells is greater than 10 µg/mL. Moreover, the inhibition at 10 µM in assay [1] is 32%.
For the compound `COc1ccc(C2(CNC(=O)c3ccc(NC(=O)c4ccco4)cc3)CCOCC2)cc1` [Molecule 73, N-{4-[({[4-(4-methoxyphenyl)tetrahydro-2H-pyran-4-yl]methyl}amino)carbonyl]phenyl}-2-furamide], in the assay on RBL-2H3 cells, the IC50 was greater than 10 µg/mL. In addition, the inhibition at 10 µM in assay [1] amounted to 28%.
The corresponding values for `O=C(Nc1ccccc1C(=O)N1CCCC1)c1ccc(CN2CCc3ccccc3C2)cc1` [Molecule 78, 4-(3,4-dihydro-2(1H)-isoquinolinyl-methyl)-N-[2-(1-pyrrolidinylcarbonyl)phenyl]benzamide] are greater than 10 µg/mL and 25%.
The corresponding values for `COc1ccc(OC)c(C2C(C(=O)c3ccc(F)cc3)=C(O)C(=O)N2CCCN2CCOCC2)c1` (stereo not shown) [Molecule 43, 5-(2,5-dimethoxyphenyl)-4-(4-fluorobenzoyl)-3-hydroxy-1-[3-(4-morpholinyl)propyl]-1,5-dihydro-2H-pyrrol-2-one] are greater than 10 µg/mL and 48.5%.
Regarding `COc1cc(C2C(C(=O)c3cccs3)=C(O)C(=O)N2CCc2ccccc2)cc(Br)c1O` (stereo not shown) [Molecule 8, 5-(3-bromo-4-hydroxy-5-methoxyphenyl)-3-hydroxy-1-(2-phenylethyl)-4-(2-thienylcarbonyl)-1,5-dihydro-2H-pyrrol-2-one], the IC50 in the assay with RBL-2H3 cells is greater than 10 µg/mL. Further, the inhibition at 10 µM in assay [1] was found to be 71%.
The corresponding values for `O=C(C1=C(O)C(=O)N(CCCN2CCOCC2)C1c1ccccc1F)c1ccc(Cl)cc1` (stereo not shown) [Molecule 44, 4-(4-chlorobenzoyl)-5-(2-fluorophenyl)-3-hydroxy-1-[3-(4-morpholinyl)propyl]-1,5-dihydro-2H-pyrrol-2-one] are greater than 10 µg/mL and 48.5%.
In the same order, the values of `CCOC(=O)c1c(-c2ccccc2)oc2ccc(OC(C(=O)O)c3ccccc3)cc12` (stereo not shown) [Molecule 60, {[3-(ethoxy carbonyl)-2-phenyl-1-benzofuran-5-yl]oxy} (phenyl) acetic acid] are greater than 10 µg/mL and 40%.
The corresponding values for `COc1cccc2cc(C(=O)C3=C(O)C(=O)N(CCN4CCOCC4)C3c3cccc(Br)c3)oc12` (stereo not shown) [Molecule 85, 5-(3-bromophenyl)-3-hydroxy-4-[(7-methoxy-1-benzofuran-2-yl)carbonyl]-1-[2-(4-morpholinyl)ethyl]-1,5-dihydro-2H-pyrrol-2-one] are roughly 10 µg/mL (≈ 18.5 µM) and 18%.
In the case of `COc1ccc(C)cc1NC(=O)CN(c1ccc(C)cc1)S(=O)(=O)c1ccc(OC)c(OC)c1` [Molecule 42], the IC50 in the assay with RBL-2H3 cells is greater than 10 µg/mL. Further, in assay [1], the inhibition at 10 µM stood at 49%.
